Test results from US20240043404A1 (AbbVie Inc., priority 2009, published 2024).
Where two headings read alike, the source gives them in different places.

System: RS4;11 cells
Test: RS4;11 cell viability assay (CellTiter Glo);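 further: acute lymphoblastic leukemia line RS4,11, EC50 derived from percentage of viable cells after treatment relative to untreated controls, cell killing taken as a measure of Bcl-2 inhibition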
Type: cell-based, human
Conditions: Homo sapiens, read-out: RS4
[1] = RS4-11, 48 h, 50,000 cells per well, 10% human serum, 48 hours, 11 EC50 Values

Protocol: The acute lymphoblastic leukemia (ALL) cell line RS4;11 was used as the primary human cell line to assess the cellular activity of Bcl-2 selective agents in vitro and their efficacy in vivo.
Cell cytotoxicity EC50 values were assessed using CellTiter Glo (Promega) according to the manufacturer's recommendations. The EC50 values were determined as a percentage of viable cells following treatment compared to the untreated control cells.

EC50 [1] | EC50 (RS4-11, Table 4, selected compounds in U.S. Pat. Application No. 12/631404, 11 EC50) | EC50 (RS4-11, Table 5, direct comparison Z=N with corresponding analogs Z=C, 11 EC50) | Compound
45 nM | 45 nM | 45 nM | CC1(C)CC(c2ccc(Cl)cc2)=C(CN2CCN(c3ccc(C(=O)NS(=O)(=O)c4ccc(NCC5CCOCC5)c([N+](=O)[O-])c4)c(Oc4ccc5[nH]ccc5c4)c3)CC2)CO1 [Example 23, 4-(4-{[4-(4-chlorophenyl)-6,6-dimethyl-5,6-dihydro-2H-pyran-3-yl]methyl}piperazin-1-yl)-2-(1H-indol-5-yloxy)-N-({3-nitro-4-[(tetrahydro-2H-pyran-4-ylmethyl)amino]phenyl}sulfonyl)benzamide]
9.83 nM |  |  | CC1(C)CCC(CN2CCN(c3ccc(C(=O)NS(=O)(=O)c4ccc(OCC5CCOCC5)c([N+](=O)[O-])c4)c(Oc4cnc5[nH]ccc5c4)c3)CC2)=C(c2ccc(Cl)cc2)C1 [Example 24, 4-(4-{[2-(4-chlorophenyl)-4,4-dimethylcyclohex-1-en-1-yl]methyl}piperazin-1-yl)-N-{[3-nitro-4-(tetrahydro-2H-pyran-4-ylmethoxy)phenyl]sulfonyl}-2-(1H-pyrrolo[2,3-b]pyridin-5-yloxy)benzamide]
7 nM |  |  | CC1(C)CCC(CN2CCN(c3ccc(C(=O)NS(=O)(=O)c4ccc(NCC5COCCO5)c([N+](=O)[O-])c4)c(Oc4cnc5[nH]ccc5c4)c3)CC2)=C(c2ccc(Cl)cc2)C1 (stereo not shown) [Example 25, 4-(4-{[2-(4-chlorophenyl)-4,4-dimethylcyclohex-1-en-1-yl]methyl}piperazin-1-yl)-N-({4-[(1,4-dioxan-2-ylmethyl)amino]-3-nitrophenyl}sulfonyl)-2-(1H-pyrrolo[2,3-b]pyridin-5-yloxy)benzamide]
58.9 nM |  |  | CC1(C)CCC(CN2CCN(c3ccc(C(=O)NS(=O)(=O)c4ccc(NCC(F)(F)F)c([N+](=O)[O-])c4)c(Oc4cnc5[nH]ccc5c4)c3)CC2)=C(c2ccc(Cl)cc2)C1 [Example 26, 4-(4-{[2-(4-chlorophenyl)-4,4-dimethylcyclohex-1-en-1-yl]methyl}piperazin-1-yl)-N-({3-nitro-4-[(2,2,2-trifluoroethyl)amino]phenyl}sulfonyl)-2-(1H-pyrrolo[2,3-b]pyridin-5-yloxy)benzamide]
332 nM |  |  | CC1(C)CCC(CN2CCN(c3ccc(C(=O)NS(=O)(=O)c4ccc(NCCC(F)(F)F)c([N+](=O)[O-])c4)c(Oc4cnc5[nH]ccc5c4)c3)CC2)=C(c2ccc(Cl)cc2)C1 [Example 27, 4-(4-{[2-(4-chlorophenyl)-4,4-dimethylcyclohex-1-en-1-yl]methyl}piperazin-1-yl)-N-({3-nitro-4-[(3,3,3-trifluoropropyl)amino]phenyl}sulfonyl)-2-(1H-pyrrolo[2,3-b]pyridin-5-yloxy)benzamide]
41.9 nM |  |  | CC1(C)CCC(CN2CCN(c3ccc(C(=O)NS(=O)(=O)c4ccc(OC[C@@H]5COCCO5)c([N+](=O)[O-])c4)c(Oc4cnc5[nH]ccc5c4)c3)CC2)=C(c2ccc(Cl)cc2)C1 [Example 28, 4-(4-{[2-(4-chlorophenyl)-4,4-dimethylcyclohex-1-en-1-yl]methyl}piperazin-1-yl)-N-({4-[(2S)-1,4-dioxan-2-ylmethoxy]-3-nitrophenyl}sulfonyl)-2-(1H-pyrrolo[2,3-b]pyridin-5-yloxy)benzamide]
20.5 nM |  |  | CO[C@H]1CC[C@@H](CNc2ccc(S(=O)(=O)NC(=O)c3ccc(N4CCN(CC5=C(c6ccc(Cl)cc6)CC(C)(C)CC5)CC4)cc3Oc3cnc4[nH]ccc4c3)cc2[N+](=O)[O-])CC1 [Example 29, Cis-4-(4-{[2-(4-chlorophenyl)-4,4-dimethylcyclohex-1-en-1-yl]methyl}piperazin-1-yl)-N-[(4-{[(4-methoxycyclohexyl)methyl]amino}-3-nitrophenyl)sulfonyl]-2-(1H-pyrrolo[2,3-b]pyridin-5-yloxy)benzamide]
15.3 nM |  |  | CC1(C)CCC(CN2CCN(c3ccc(C(=O)NS(=O)(=O)c4ccc(OC[C@H]5COCCO5)c([N+](=O)[O-])c4)c(Oc4cnc5[nH]ccc5c4)c3)CC2)=C(c2ccc(Cl)cc2)C1 [Example 30, 4-(4-{[2-(4-chlorophenyl)-4,4-dimethylcyclohex-1-en-1-yl]methyl}piperazin-1-yl)-N-({4-[(2R)-1,4-dioxan-2-ylmethoxy]-3-nitrophenyl}sulfonyl)-2-(1H-pyrrolo[2,3-b]pyridin-5-yloxy)benzamide]
